Legend:
HELA cell line = experiment: Clonogenic cell survival assay, HELA; format: cell-based, human
Experimental: (§1) TAXOL (paclitaxel) is a powerful cytotoxic agent but is very difficult to use because it is almost insoluble in water or blood plasma. For in vivo or in vitro use, it is generally dissolved in dimethyl sulphoxide (DMSO) or in a complex commercial pharmaceutical preparation. […] The TAXOL (paclitaxel) concentration was varied over the range of 1 to 8nM. These carrier solutions were labeled “polymer” series. Similarly, the same range of TAXOL (paclitaxel) solution concentrations was prepared in neat dimethyl sulphoxide as solvent; these carrier solutions were labeled “DMSO” series. Finally, a series of commercially available pharmaceutical preparations was used, which contained TAXOL (paclitaxel) in the concentration range of 1 to 8 nM; these carrier solutions were labeled “commercial” series. […] The four series of solutions were compared for their cytotoxic action by a clonogenic cell survival assay using three human in vitro cell lines, viz., HELA (originally explanted from cancer of the cervix), HRT-18 (originally explanted from […]) and MGHU-1 (originally explanted from a bladder cancer).

MGHU-1 cell line = experiment: Clonogenic cell survival assay, MGHU-1; format: cell-based, human; settings: MGHU-1, clonogenic cell survival
Experimental: as §1

HRT-18 cell line = experiment: Clonogenic cell survival assay, HRT-18; format: cell-based, human; settings: HRT-18, clonogenic cell survival
Experimental: as §1

Experimental for cancer cells (Molt 4): Typically, for a porphyrin sensitizer, the concentration was determined by ultraviolet/visible measurement of absorption at the Soret wavelength near 420 nm.
The cell growth medium was prepared in three varieties. Each variety contained the nutrients required for cell growth. One variety contained neither sensitizer nor polymer, a second contained polymer but no sensitizer and a third contained both polymer and sensitizer.
The resulting solution was adjusted to pH 7.2 by careful addition of aqueous sodium hydroxide solution (5 M) and finally once more filtered through a 0.22 μm filter. The resulting solution was used as the growth medium containing both sensitizer and polymer in the following experiments. A growth medium containing only polymer was prepared as here but omitting the sensitizer, viz, instead of the sensitizer solution (85 mL), an equal volume of distilled water containing the same amount of polymer but no sensitizer was added. […]
For each growth medium, 10 mL of a suspension containing 10^7-10^8 cells/mL were centrifuged and the cells were resuspended in one of the growth media described above (45mL) to give three cell preparations: A, containing sensitizer plus polymer; B, containing neither sensitizer nor polymer; C, containing polymer but no sensitizer. […] Its amount could be determined by visible spectroscopy as described above. […]

Structure (SMILES) | cytotoxic action (in words) (HELA cell line) | cytotoxic action (in words) (MGHU-1 cell line) | cytotoxic action (in words) (HRT-18 cell line) | cell growth (cell count) (cancer cells (Molt 4))
COc1cc(NS(C)(=O)=O)ccc1Nc1c2ccccc2nc2ccccc12 [amsacrine] | effective | effective | effective | –
C1=Cc2nc1c(-c1ccccc1)c1ccc([nH]1)c(-c1ccccc1)c1nc(c(-c3ccccc3)c3ccc([nH]3)c2-c2ccccc2)C=C1 [sensitizer, 5,10,15,20 tetrakis phenyl porphyrin] | – | – | – | not inhibited
